Experiments:
Treponema isolate = assay: Antimicrobial susceptibility test (MICROSCAN plates) of a patient's Treponema isolate; format: cell-based; details: for RESULT (antibiotic susceptibility): Treponema infected patient's isolate, MICROSCAN plates, 35° C., 16-20 hours; for susceptibility profile from a specific human patient: text restating Example 7
Procedure: For susceptibility testing, the organisms harvested could be assayed using any suitable susceptibility assay (See, Example 7). In some embodiments of the present invention, MICROSCAN antibiotic susceptibility plates were inoculated and incubated. Following incubations, plates were scanned for growth and respective sensitivity reaction. […] For the results to be considered reliable, the no growth of organisms was accepted in the negative control well, while the positive control well had to have sufficient growth to be read. In some embodiments of the present invention, to confirm the presence or absence of growing spirochetes in the growth well, aliquots from the growth well were reinoculated with fresh growth media and after an incubation time (e.g., 7-10 days) the presence of the organisms was confirmed (e.g., by phase contrast microscopy or direct fluorescent antibody staining).
(§1) This example describes the preparation of a pellet used for antimicrobial susceptibility testing of a culture sample. The procedure begins with a culture (e.g., prepared in the manner described in Example 2), where serum from a patient is inoculated in GSI-1 media and allowed to grow. In order to form pellet, an aliquot of this culture sample is placed in a microcentrifuge tube along with 10% SDS solution, and centrifuged at 14,000 g to disrupt the spirochetes and maximize the number of available eptiopic sites. The disrupted spirochetes were then cultured in an alternative growth medium made up of one part GSI-1 medium, one part 6.5% lactalbumin hydrolysate, one part 2% brain heart infusion, one part 10% pluronic fluid, and one part of the isolated (disrupted) spirochetes. This inoculated alternative growth medium was then allowed to incubate in the closed micro centrifuge tube until a distinctive pellet was observed (typically 7-14 days).
This example describes an antimicrobial susceptibility test performed for a human patient. The patient had previously been testing using GSI-1 medium (e.g., as described in Example 2) for the presence of any spirochetes. […] This culture sample was then transferred to a microcentrifuge tube, and a pellet for antimicrobial susceptibility testing was prepared as described in Example 6.
(§2) Following the observation of pellet formation, the tube was vortexed and incubated at 35° C. until a MacFarlane standard of between 8 to 12% turbidity was achieved. MICROSCAN antibiotic susceptibility microtiter plates were then inoculated with (e.g., 110 μl of) inoculum and allowed to incubate at 35° C. for 16-20 hours. The microtiter plates were then scanned for growth and respective sensitivity reaction (both the control well and the growth well). Table 2 below lists the various antimicrobials tested with this sample and whether growth of the organism was inhibited (susceptible) or whether the growth of the organism was not inhibited (resistant).

E. coli = assay: Antibiotic susceptibility test (MICROSCAN or disc diffusion), control organism E. coli; format: cell-based; details: total isolates 1
Tatumella = assay: Antibiotic susceptibility test (MICROSCAN or disc diffusion), control organism Tatumella; format: cell-based; details: total isolates 2
From the text: as §1, §2
(§3) This Example describes the results for susceptibility tests that were performed on a large number of patient samples positive for either Borrelia or Leptospira. […] The results presented in Table 3 reveal the varied response of different types of spirochetes to different antibiotics.

Y. entero gp. = assay: Antibiotic susceptibility test (MICROSCAN or disc diffusion), control organism Y. entero gp.; format: cell-based; details: total isolates 1
Borrelia = assay: Antibiotic susceptibility test (MICROSCAN or disc diffusion) of patient samples positive for Borrelia; format: cell-based; details: total isolates 519
From the text: as §1, §2, §3

Leptospira [1] = assay: Antibiotic susceptibility test (MICROSCAN or disc diffusion) of patient samples positive for Leptospira; format: cell-based; details: total isolates 276
From the text: as §1, §2, §3

A. lwoffii = assay: Antibiotic susceptibility test (MICROSCAN or disc diffusion), control organism A. lwoffii; format: cell-based; details: total isolates 1
Pseudomonas = assay: Antibiotic susceptibility test (MICROSCAN or disc diffusion), control organism Pseudomonas; format: cell-based; details: total isolates 1
Leptospira [2] = assay: Susceptibility testing of Leptospira isolated from a patient with symptoms of multiple sclerosis; format: cell-based; details: for Antibiotic Susceptibility Results, SERUM: Leptospira culture from serum of multiple sclerosis patient; for Antibiotic Susceptibility Results, URINE: Leptospira culture from urine of multiple sclerosis patient
Procedure: This example describes the preparation of a pellet used for antimicrobial susceptibility testing of a culture sample. […] In order to form pellet, an aliquot of this culture sample is placed in a microcentrifuge tube along with 10% SDS solution, and centrifuged at 14,000 g to disrupt the spirochetes and maximize the number of available eptiopic sites. […] This inoculated alternative growth medium was then allowed to incubate in the closed micro centrifuge tube until a distinctive pellet was observed (typically 7-14 days).
MICROSCAN antibiotic susceptibility microtiter plates were then inoculated with (e.g., 110 μl of) inoculum and allowed to incubate at 35° C. for 16-20 hours. The microtiter plates were then scanned for growth and respective sensitivity reaction (both the control well and the growth well).

Leptospira [3] = assay: Susceptibility testing of Leptospira isolated from a patient with symptoms of rheumatoid arthritis; format: cell-based; details: for Antibiotic Susceptibility Results, SERUM: Leptospira culture from serum of rheumatoid arthritis patient; for Antibiotic Susceptibility Results, URINE: Leptospira culture from urine of rheumatoid arthritis patient
From the text: as §1
Following the observation of pellet formation, the tube was vortexed and incubated at 35° C. until a MacFarlane standard of between 8 to 12% turbidity was achieved. MICROSCAN antibiotic susceptibility microtiter plates were then inoculated with (e.g., 110 μl of) inoculum and allowed to incubate at 35° C. for 16-20 hours. The microtiter plates were then scanned for growth and respective sensitivity reaction (both the control well and the growth well).
This Example describes the diagnosis and treatment of a human patient with symptoms of rheumatoid arthritis. In particular, serum and urine samples from this patient were initially cultured on GSI-1 (e.g., as described in Example 2), and screened for the presence of spirochetes (e.g., as described in Example 3). […] These cultures were then used to produce pellets for antimicrobial susceptibility testing (e.g., as described in Example 6). The antimicrobial susceptibility tests were then carried out on each sample (e.g., as described in Example 7) with the antimicrobials listed below in Table 5.

Borrelia and Leptospira = assay: Susceptibility of several hundred patient samples having Borrelia and Leptospira infections (population effectiveness); format: cell-based
Procedure: In these experiments, several hundred patient samples were cultured on GSI-1 (e.g., as described in Example 2). These culture samples were then used to produce pellets for antimicrobial susceptibility testing as described in Example 6. The antimicrobial susceptibility tests were then carried out on each sample as described in Example 7 or by the disc diffusion method (e.g., instead of MICROSCAN) with the antimicrobials listed below in Table 3.

[4] = system: Borrelia burgdorferi infection in a human patient; assay: Treatment of a human patient with Borrelia burgdorferi infection; format: in vivo; details: human patient with neurological distress, Borrelia burgdorferi positive

Compound: C[C@@H](O)[C@H]1C(=O)N2C(C(=O)O)=C(S[C@@H]3CN[C@H](C(=O)N(C)C)C3)[C@H](C)[C@H]12 [Meropenem]
- RESULT (antibiotic susceptibility) (Treponema isolate): Resistant
- Antibiotic Susceptibility Test Results, E. coli (E. coli): 100%
- Antibiotic Susceptibility Test Results, Tatumella (Tatumella): 100%
- Antibiotic Susceptibility Test Results, Y. entero gp. (Y. entero gp.): 100%
- Antibiotic Susceptibility Test Results, Borrelia (Borrelia): 82%
- Antibiotic Susceptibility Test Results, Leptospira (Leptospira [1]): 75%
- Antibiotic Susceptibility Test Results, A. lwoffii (A. lwoffii): 100%
- Antibiotic Susceptibility Test Results, Pseudomonas (Pseudomonas): 100%
- Antibiotic Susceptibility Results, SERUM (Leptospira [2]): Resistant
- Antibiotic Susceptibility Results, URINE (Leptospira [2]): Resistant
- Antibiotic Susceptibility Results, SERUM (Leptospira [3]): Resistant
- Antibiotic Susceptibility Results, URINE (Leptospira [3]): Resistant

Compound: Amoxicillin/Clavulanate [Augmentin]
- RESULT (antibiotic susceptibility) (Treponema isolate): Resistant
- susceptibility profile from a specific human patient (Treponema isolate): resistance
- Antibiotic Susceptibility Test Results, E. coli (E. coli): 100%
- Antibiotic Susceptibility Test Results, Tatumella (Tatumella): 100%
- Antibiotic Susceptibility Test Results, Y. entero gp. (Y. entero gp.): 100%
- Antibiotic Susceptibility Test Results, Borrelia (Borrelia): 90%
- Antibiotic Susceptibility Test Results, Leptospira (Leptospira [1]): 89%
- Antibiotic Susceptibility Results, SERUM (Leptospira [2]): Resistant
- Antibiotic Susceptibility Results, URINE (Leptospira [2]): Resistant
- Antibiotic Susceptibility Results, SERUM (Leptospira [3]): Susceptible
- Antibiotic Susceptibility Results, URINE (Leptospira [3]): Susceptible
- effectiveness in the population (Borrelia and Leptospira): over 80%

Compound: C[C@H]1[C@H](NC(=O)/C(=N\OC(C)(C)C(=O)O)c2csc(N)n2)C(=O)N1S(=O)(=O)O [Aztreonam]
- RESULT (antibiotic susceptibility) (Treponema isolate): Susceptible
- susceptibility profile from a specific human patient (Treponema isolate): sensitive
- Antibiotic Susceptibility Test Results, E. coli (E. coli): 100%
- Antibiotic Susceptibility Test Results, Tatumella (Tatumella): 0%
- Antibiotic Susceptibility Test Results, Y. entero gp. (Y. entero gp.): 0%
- Antibiotic Susceptibility Test Results, Borrelia (Borrelia): 11%
- Antibiotic Susceptibility Test Results, Leptospira (Leptospira [1]): 15%
- Antibiotic Susceptibility Test Results, A. lwoffii (A. lwoffii): 100%
- Antibiotic Susceptibility Test Results, Pseudomonas (Pseudomonas): 100%
- Antibiotic Susceptibility Results, SERUM (Leptospira [2]): Resistant
- Antibiotic Susceptibility Results, URINE (Leptospira [2]): Resistant
- Antibiotic Susceptibility Results, SERUM (Leptospira [3]): Resistant
- Antibiotic Susceptibility Results, URINE (Leptospira [3]): Resistant
- effectiveness in the population (Borrelia and Leptospira): less than 20%

Compound: Gentamicin
- RESULT (antibiotic susceptibility) (Treponema isolate): Resistant
- Antibiotic Susceptibility Test Results, E. coli (E. coli): 100%
- Antibiotic Susceptibility Test Results, Tatumella (Tatumella): 100%
- Antibiotic Susceptibility Test Results, Y. entero gp. (Y. entero gp.): 100%
- Antibiotic Susceptibility Test Results, Borrelia (Borrelia): 89%
- Antibiotic Susceptibility Test Results, Leptospira (Leptospira [1]): 86%
- Antibiotic Susceptibility Test Results, A. lwoffii (A. lwoffii): 100%
- Antibiotic Susceptibility Test Results, Pseudomonas (Pseudomonas): 100%
- Antibiotic Susceptibility Results, SERUM (Leptospira [2]): Resistant
- Antibiotic Susceptibility Results, URINE (Leptospira [2]): Resistant
- Antibiotic Susceptibility Results, SERUM (Leptospira [3]): Resistant
- Antibiotic Susceptibility Results, URINE (Leptospira [3]): Resistant

Compound: Ticarcillin/Clavulanate
- RESULT (antibiotic susceptibility) (Treponema isolate): Susceptible
- Antibiotic Susceptibility Test Results, E. coli (E. coli): 100%
- Antibiotic Susceptibility Test Results, Tatumella (Tatumella): 100%
- Antibiotic Susceptibility Test Results, Y. entero gp. (Y. entero gp.): 100%
- Antibiotic Susceptibility Test Results, Borrelia (Borrelia): 79%
- Antibiotic Susceptibility Test Results, Leptospira (Leptospira [1]): 75%
- Antibiotic Susceptibility Test Results, A. lwoffii (A. lwoffii): 100%
- Antibiotic Susceptibility Test Results, Pseudomonas (Pseudomonas): 100%
- Antibiotic Susceptibility Results, SERUM (Leptospira [2]): Resistant
- Antibiotic Susceptibility Results, URINE (Leptospira [2]): Resistant
- Antibiotic Susceptibility Results, SERUM (Leptospira [3]): Resistant
- Antibiotic Susceptibility Results, URINE (Leptospira [3]): Resistant

Compound: NC[C@H]1O[C@H](O[C@H]2[C@H](O)[C@@H](O[C@H]3O[C@H](CO)[C@@H](O)[C@H](N)[C@H]3O)[C@H](N)C[C@@H]2N)[C@H](N)C[C@@H]1O [Tobramycin]
- RESULT (antibiotic susceptibility) (Treponema isolate): Intermediate
- Antibiotic Susceptibility Test Results, E. coli (E. coli): 100%
- Antibiotic Susceptibility Test Results, Tatumella (Tatumella): 100%
- Antibiotic Susceptibility Test Results, Y. entero gp. (Y. entero gp.): 100%
- Antibiotic Susceptibility Test Results, Borrelia (Borrelia): 81%
- Antibiotic Susceptibility Test Results, Leptospira (Leptospira [1]): 84%
- Antibiotic Susceptibility Test Results, A. lwoffii (A. lwoffii): 100%
- Antibiotic Susceptibility Test Results, Pseudomonas (Pseudomonas): 100%
- Antibiotic Susceptibility Results, SERUM (Leptospira [2]): Resistant
- Antibiotic Susceptibility Results, URINE (Leptospira [2]): Resistant
- Antibiotic Susceptibility Results, SERUM (Leptospira [3]): Resistant
- Antibiotic Susceptibility Results, URINE (Leptospira [3]): Resistant

Compound: CO/N=C(\C(=O)N[C@@H]1C(=O)N2C(C(=O)O)=C(CSc3nc(=O)c(=O)[nH]n3C)CS[C@H]12)c1csc(N)n1 [ceftriaxone]
- patient response to treatment [4]: responded well until the medication was stopped

— US8617872B2, “Compositions for culturing spirochetes” (priority 2000, dated 2013)
